Test results from paper PMC6151710 (Molecules : A Journal of Synthetic Chemistry and Natural …, 2017).
Like-named read-outs stand apart in the source and are kept apart here. One block for each compound: values may come before it.

Tests used:
[1] = Phase I metabolism in human liver microsomes, metabolite quantitation by UPLC-MS/MS MRM; format: in vitro ADME
Experimental: (§1) Phase I Metabolism. […] Subsequently, 150 μL of NADPH solution (final concentration of 1 mM) was added to each reaction mixture. After incubation at 37 °C for 90 min in a shaking water bath, the reaction was terminated by adding 600 μL of ice-cold methanol. The contents were vortexed for 30 s and then centrifuged at 4000 rpm for 15 min. The metabolites of psoralen and isopsoralen in the supernatant were identified by UPLC-MS/MS.
(§2) Metabolite analysis by UPLC-MS/MS. The UPLC/MS/MS method was carried out using a Waters Acquity UPLC Sample Manager and a Waters Acquity UPLC Binary Solvent Manager connected to a Waters Quattro Premier XE triple-quadruple mass spectrometer equipped with a combined ESI probe and Mass Lynx 1.4 software (Waters, Milford, MA, USA). An Acquity UPLC BEH C18 column (1.7 µm, 2.1 mm × 100 mm) was used. The instrument settings were as follows: ESI+; source temperature, 120 °C; dissolution temperature, 350 °C; capillary voltage, 3.2 kV; dissolution N2, 600 L/h; cone N2, 50 L/h. Acquisition was carried out from m/z 50 Da to 1000 Da in the total ion scan mode. MS/MS spectra were acquired from m/z 50 Da to 600 Da in the daughter ion scan mode. The solvent system consisted of solvent A (0.1% CH3COOH) and solvent B (100% ACN). The flow rate was 0.2 mL/min. The gradient elution method was 5 to 80% B over 12 min, followed by 5% B from 12 to 15 min.
(§3) Quantitation analysis of psoralen and isopsoralen metabolites by UPLC-MS/MS. […] The HPLC method and electrospray ionization were performed with the same conditions as those for metabolite analysis by UPLC-MS/MS in liver microsomes, except for the cone (30 V) and collision energy (20 V).

[2] = Phase I metabolism in mice liver microsomes, metabolite quantitation by UPLC-MS/MS MRM; format: in vitro ADME
Experimental: as §1, §2, §3

[3] = test system: patients; design: method as in doi:10.5021/ad.1995.7.1.51; conditions: 4 of 80 patients, within 3.5–20 months of commencement of PUVA 5-MOP; cited from earlier work
[4] = test system: animals; design: method as in PMID 19640237; conditions: 560 mg/kg daily for 12 days; cited from earlier work
[5] = test system: KunMing (KM) mice; assay: Hepatotoxicity study in mice (GSH-depleted by BSO, CYP450 inhibition by ABT): ALT, hepatic GSH, histopathology; conditions: for ALT activity with additional ABT treatment / histopathological evaluation of liver, with ABT: 300 mg/kg oral alone or with BSO, plus ABT 100 mg/kg i.p.; for hepatic GSH level with ABT: 300 mg/kg oral plus ABT 100 mg/kg i.p.; for histopathological evaluation of liver, co-treatment with BSO: 300 mg/kg oral plus BSO 650 mg/kg i.p., 6 or 24 h
Experimental: Male 6-week-old KunMing (KM) mice were purchased from the Animal Institute of the Tianjin University of Traditional Chinese Medicine (Tianjin, China), and were used after a 1-week acclimatization period. The animals were housed in mice cages in a unidirectional airflow room under controlled conditions (20–24 °C, 12:12-h light:dark cycles, and free access to water). We assured that all animals received humane care according to the criteria outlined in the “Guide for the Care and Use of Laboratory Animals” prepared by the National Academy of Sciences and published by the National Institutes of Health ((NIH) publication 86–23 revised 1985).
In the hepatotoxicity study, the mice were randomly assigned to 22 groups (n = 10/group). The mice were intraperitoneally injected with BSO (650 mg/kg) in saline (0.2 mL/20 g). The intraperitoneal dosing of ABT (100 mg/kg) in saline (0.2 mL/20 g) was simultaneous with the BSO dosing. […] Food was removed 14–16 h before BSO dosing, and was supplied again 6 h after administration of the test compounds. At 6 and 24 h, blood was collected by eyeball removal, and then the liver was removed. Plasma was separated from these blood samples, and alanine aminotransferase (ALT) was determined with a commercial kit, the GPT-UV test (Nanjing jiancheng Bioengineering Institute). A piece of each liver sample was fixed in 10% formalin, embedded in paraffin wax, sectioned, and stained with hematoxylin and eosin for histopathological evaluation.
Statistical analysis. The results from the serum ALT assay were analyzed by Kruskal–Wallis non-parametric analysis of variance followed by Mann–Whitney’s U test. For the data of the GSH assay and CYP450s relative activity, comparisons between the two groups were made by independent-samples t test. SPASS 11.5 was used for these statistical analyses. Differences were considered significant when p < 0.05 or p < 0.01.

[6] = target: CYP3A4 (Homo sapiens, UniProt P08684); assay: IC50 shift assay (pre-incubation with/without NADPH); format: in vitro ADME; conditions: for IC50: HLM; for IC50 Shift (fold): IC50 (−) NADPH versus (+) NADPH pre-incubation
Chain of CYP3A4 (P08684 whole entry): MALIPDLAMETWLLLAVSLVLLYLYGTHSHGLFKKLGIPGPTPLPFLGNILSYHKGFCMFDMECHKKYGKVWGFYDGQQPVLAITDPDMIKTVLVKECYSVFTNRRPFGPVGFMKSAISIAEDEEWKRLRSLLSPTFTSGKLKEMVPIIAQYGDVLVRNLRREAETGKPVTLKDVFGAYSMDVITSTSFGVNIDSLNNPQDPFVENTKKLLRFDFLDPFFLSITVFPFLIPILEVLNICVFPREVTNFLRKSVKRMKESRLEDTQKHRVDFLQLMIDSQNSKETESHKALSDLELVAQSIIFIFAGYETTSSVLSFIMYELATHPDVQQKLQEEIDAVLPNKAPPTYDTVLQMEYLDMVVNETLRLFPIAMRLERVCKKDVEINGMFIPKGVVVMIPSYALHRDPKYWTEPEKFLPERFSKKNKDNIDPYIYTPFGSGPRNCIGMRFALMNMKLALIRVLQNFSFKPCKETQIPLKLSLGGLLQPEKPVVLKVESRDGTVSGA
Experimental: IC50 shift assay. In the present study, an IC50 shift assay was performed using a two-step procedure. […] After pre-incubation, a 0.02 mL aliquot of the mixture was added to a mixture containing a standard CYP substrate (final concentrations at the Km) in 0.18 mL of potassium phosphate buffer to measure CYP activities. After incubation for 15 min at 37 °C, the reactions were ceased by adding four volumes of pre-cooled methanol. The supernatants were centrifuged at 14,000 rpm for 15 min and then stored at −20 °C until the LC/MS/MS analysis of metabolites.
Analysis of samples. The LC/MS/MS method was conducted as described in [59].
IC50 value calculation. The IC50 value was calculated using GraphPad Prism (version 4.0) software (GraphPad Software, San Diego, CA, USA).

[7] = test system: mice; conditions: oral 40 mg daily for 28 days in mice; cited from earlier work
[8] = MRM mode, parent 50 μM, HLM 1.0 mg/mL, NADPH 1 mM, 90 min
[9] = MRM mode, parent 50 μM, MLM 1.0 mg/mL, NADPH 1 mM, 90 min
[10] = 300 mg/kg oral in combination with BSO 650 mg/kg i.p., 6 h
[11] = 300 mg/kg oral in combination with BSO 650 mg/kg i.p., 24 h

Compound: 6-carboxymethyl-7-hydroxyl-coumarin [M′4]
- Peak Area HLM [1, 8]: 34,274
- Peak Area MLM [2, 9]: 96,828

Compound: COc1c2ccoc2cc2oc(=O)ccc12 [5-MOP, 5-Methoxypsoralen]
- patients with transient elevations of liver enzymes [3]: 5%
- liver effect of high-dose treatment [4]: hepatocyte changes

Compound: CCCCS(=N)(=O)CCC(N)C(=O)O [BSO, L-buthi-onine-S, R-sulfoxinine, reference compound]
- plasma ALT activity after sole treatment ([5]; BSO 650 mg/kg i.p. or ABT 100 mg/kg i.p. alone, at 24 h): no significant changes
- hepatic GSH level after treatment with BSO alone ([5]; BSO 650 mg/kg i.p., over 24 h): time-dependent decrease at least for 6 h, while returning to a normal level at 24 h
- liver hazard (pathological section) after BSO alone ([5]; BSO 650 mg/kg i.p., over 24 h): without hazard to the liver

Compound: O=c1ccc2ccc3occc3c2o1 [Isopsoralen]
- IC50 ([6]; IC50 (+) NADPH, 30 min pre-incubation with NADPH): 9.59 ± 1.04 µM
- IC50 Shift (fold) [6]: 10.1 fold
- IC50 Shift (fold) ([6]; listed as isopsoralen): > 3 fold
- IC50 ([6]; IC50 (−) NADPH, 30 min pre-incubation without NADPH): 96.8 ± 2.21 µM
- liver injury findings [7]: elevated serum ALT, AST, and/or ALP levels
- ALT activity with additional ABT treatment [5]: completely suppressed the elevation of ALT activity
- histopathological evaluation of liver, with ABT [5]: completely relieved the granular degeneration and vacuolation
- plasma ALT activity [5, 10]: 30.08 IU/L
- plasma ALT activity [5, 11]: 68.99 IU/L
- hepatic GSH level with ABT ([5]; at 24 h): ABT prevented the decrease
- histopathological evaluation of liver, co-treatment with BSO [5]: did not aggravate the histopathology
- histopathological evaluation of liver ([5]; 300 mg/kg oral, alone, 6 h): weak granular degeneration
- plasma ALT activity ([5]; 300 mg/kg oral, alone, 6 h): 22.73 IU/L
- histopathological evaluation of liver ([5]; 300 mg/kg oral, alone, 24 h): diffuse vacuolation
- plasma ALT activity ([5]; 300 mg/kg oral, alone, 24 h): 43.20 IU/L
- hepatic GSH level ([5]; 300 mg/kg oral, alone, at 24 h): 9.94 ± 8.57 µM/g protein

Compound: O=c1ccc2c(O)c3ccoc3cc2o1 [M1]
- Peak Area HLM [1, 8]: 557
- Peak Area MLM [2, 9]: 1019

Compound: O=c1ccc2cc3ccoc3c(O)c2o1 [M2]
- Peak Area HLM ([1]; human, microsomes, 1.5 h, 50 μM, pH 7.4): 502
- Peak Area MLM ([2]; mouse, microsomes, 1.5 h, 50 μM, pH 7.4): 8655

- Peak Area HLM [1, 8]: 529
- Peak Area MLM [2, 9]: 164
Compound: O=c1ccc2c(O)c3ccoc3c(O)c2o1 [M3]

- Peak Area HLM [1, 8]: 66,831
- Peak Area MLM [2, 9]: 98,864
Compound: O=C(O)Cc1cc2ccc(=O)oc2cc1O [M4, 6-carboxymethyl-7-hydroxyl-coumarin]

- Peak Area HLM [1, 8]: 61,016
- Peak Area MLM [2, 9]: 102,180
Compound: O=c1ccc2cc3c(cc2o1)OC(O)C3O (stereo not drawn) [M5]

- Peak Area HLM [1, 8]: 1288
- Peak Area MLM [2, 9]: 14,513
Compound: O=c1ccc2cc(O)c3occc3c2o1 [M′1]

- Peak Area HLM [1, 8]: 1349
- Peak Area MLM [2, 9]: 4707
Compound: O=c1ccc2c(O)cc3occc3c2o1 [M′2]

- Peak Area HLM [1, 8]: 312
- Peak Area MLM [2, 9]: 418
Compound: O=C(O)/C=C\c1ccc2occc2c1O [M′3]

- Peak Area HLM [1, 8]: 1627
- Peak Area MLM [2, 9]: 7725
Compound: O=c1ccc2ccc3c(c2o1)C(O)C(O)O3 (stereo not drawn) [M′5]

Compound: O=c1ccc2cc3ccoc3cc2o1 [Psoralen]
- IC50 ([6]; 30 min pre-incubation with NADPH, read-out: IC50 (+) NADPH): 19.5 ± 1.04 µM
- IC50 ([6]; 30 min pre-incubation without NADPH, read-out: IC50 (−) NADPH): > 200 µM
- ALT activity with additional ABT treatment [5]: completely suppressed the elevation of ALT activity
- histopathological evaluation of liver, with ABT [5]: completely relieved the granular degeneration and vacuolation
- plasma ALT activity [5, 10]: 59.90 IU/L
- plasma ALT activity [5, 11]: 326.07 IU/L
- hepatic GSH level with ABT ([5]; at 24 h): ABT prevented the decrease
- histopathological evaluation of liver, co-treatment with BSO [5]: did not aggravate the histopathology
- histopathological evaluation of liver ([5]; 300 mg/kg oral, alone, 6 h): diffuse granular degeneration
- plasma ALT activity ([5]; 300 mg/kg oral, alone, 6 h): 42.17 IU/L
- histopathological evaluation of liver ([5]; 300 mg/kg oral, alone, 24 h): diffuse vacuolation
- plasma ALT activity ([5]; 300 mg/kg oral, alone, 24 h): 128.42 IU/L
- hepatic GSH level ([5]; 300 mg/kg oral, alone, at 24 h): 11.26 ± 3.67 µM/g protein
